Drawing on ChEMBL document CHEMBL1128274, “6-Aminoquinolones: a new class of quinolone antibacterials?” (1995), this text covers MIC and Concentration for eight compounds.

Values after ≈ are worked out from the molar mass of the structure shown.

Common to all, as to type: functional
Experiment [1] has as its system Acinetobacter calcoaceticus. Briefly: Tested in vitro for inhibitory activity against gram negative bacteria Acinetobacter calcoaceticus OSMPV 113 strain.
For another experiment, the system named is Enterobacter cloacae. Briefly: Tested in vitro for inhibitory activity against gram negative bacteria Enterobacter cloacae OMNFI 174 strain.
Experiment [2] concerns Escherichia coli. As to the kind of experiment: Tested in vitro for inhibitory activity against gram negative bacteria Escherichia coli ATCC 8739 cell lines.
Experiment [3] relates to Escherichia coli. As to the kind of experiment: Tested in vitro for inhibitory activity against gram negative bacteria Escherichia coli ISF 432 strain.
Another experiment has as its system Shigella. Briefly: Tested in vitro for inhibitory activity against gram negative bacteria Shigella enteritidis.
For experiment [4], the system named is Staphylococcus epidermidis. As to the kind of experiment: Tested in vitro for inhibitory activity against gram positive bacteria Staphylococcus epidermidis HCF berset C strain.
The test system of experiment [5] is Staphylococcus aureus. As to the kind of experiment: Tested in vitro for inhibitory activity against gram positive bacteria Staphylococcus aureus ATCC 6538 strain.
The test system of experiment [6] is Staphylococcus aureus. Briefly: Tested in vitro for inhibitory activity against gram positive bacteria Staphylococcus aureus MPR 5 strain.
A further experiment relates to Enterococcus faecalis. As to the kind of experiment: Tested in vitro for inhibitory activity against gram positive bacteria Streptococcus faecalis LEP Br strain.
Experiment [7] has as its system Staphylococcus epidermidis. Briefly: Tested in vitro for inhibitory activity against gram positive bacteria Staphylococcus epidermidis CPHL A2 strain.
Another experiment relates to Klebsiella pneumoniae. As to the kind of experiment: Tested in vitro for inhibitory activity against gram negative bacteria Klebsiella pneumoniae ATCC 10031 strain.
For another experiment, the system named is Providencia stuartii. As to the kind of experiment: Tested in vitro for inhibitory activity against gram negative bacteria Providencia stuartii CNUR 5 strain.
In the next experiment the test system is Pseudomonas aeruginosa. Briefly: Tested in vitro for inhibitory activity against gram negative bacteria Pseudomonas aeruginosa ATCC 9027 strain.
Experiment [8] deals with Escherichia coli. Briefly: Tested in vitro for inhibitory activity against gram negative bacteria Escherichia coli ATCC 8739 cell lines at 5.8 ug/mL.
For experiment [9], the system named is Escherichia coli. As to the kind of experiment: Tested in vitro for inhibitory activity against gram negative bacteria Escherichia coli ISF 432 cell lines at 5.8 ug/mL.
Experiment [10] can be described thus: Minimum concentration at which cleaved linear DNA is observed.
For experiment [11], the system named is Escherichia coli. As to the kind of experiment: Tested in vitro for inhibitory activity against gram negative bacteria Escherichia coli ATCC 8739 strain.
The subject of experiment [12] is Escherichia coli. As to the kind of experiment: Tested in vitro for inhibitory activity against gram negative bacteria Escherichia coli ATCC 8739 cell lines at 25 ug/mL.
In experiment [13] the test system is Escherichia coli. Briefly: Tested in vitro for inhibitory activity against gram negative bacteria Escherichia coli ISF 432 cell lines at 25 ug/mL.

With `Nc1cc2c(=O)c(C(=O)O)cn(C3CC3)c2cc1NC1CC1`, the MIC in [1] was 128 µg/mL (≈ 428 µM); against Enterobacter cloacae it was 64 µg/mL (≈ 214 µM); in the experiment with Escherichia coli [2] it was 2 µg/mL (≈ 6.68 µM); in the experiment with Escherichia coli [3], 4 µg/mL (≈ 13.4 µM); with Shigella, 64 µg/mL (≈ 214 µM); in experiment [4], 128 µg/mL (≈ 428 µM). Besides, the MIC with Staphylococcus aureus [5] was determined as 128 µg/mL (≈ 428 µM); against Staphylococcus aureus [6], 128 µg/mL (≈ 428 µM); in the experiment with Enterococcus faecalis, 128 µg/mL (≈ 428 µM); in [7] it was 128 µg/mL (≈ 428 µM); against Klebsiella pneumoniae, 2 µg/mL (≈ 6.68 µM); against Providencia stuartii, 128 µg/mL (≈ 428 µM). In addition, the MIC against Pseudomonas aeruginosa turned out to be 128 µg/mL (≈ 428 µM).
For the compound `CC(C)(C)n1cc(C(=O)O)c(=O)c2cc(N)c(N3CCSCC3)cc21`, the MIC in experiment [1] was 0.5 µg/mL (≈ 1.38 µM); against Enterobacter cloacae it was 2 µg/mL (≈ 5.53 µM); against Escherichia coli [8], 0.06 µg/mL (≈ 0.166 µM); in the experiment with Escherichia coli [9] it was 0.03 µg/mL (≈ 0.083 µM); against Shigella it was 2 µg/mL (≈ 5.53 µM); in experiment [4], 0.5 µg/mL (≈ 1.38 µM). The MIC against Staphylococcus aureus [5] came out at 0.25 µg/mL (≈ 0.692 µM); in the experiment with Staphylococcus aureus [6], 0.25 µg/mL (≈ 0.692 µM); in the experiment with Enterococcus faecalis, 8 µg/mL (≈ 22.1 µM); in experiment [7], 0.5 µg/mL (≈ 1.38 µM); with Klebsiella pneumoniae, 0.03 µg/mL (≈ 0.083 µM); against Providencia stuartii, 4 µg/mL (≈ 11.1 µM). Moreover, the MIC in the experiment with Pseudomonas aeruginosa is 4 µg/mL (≈ 11.1 µM). For the same compound, the Concentration in [10] was found to be 5.8 µg/mL.
Turning to `CN1CCN(c2cc3c(c(N)c2N)c(=O)c(C(=O)O)cn3C2CC2)CC1`, the MIC was 128 µg/mL (≈ 358 µM) in [1]; 128 µg/mL (≈ 358 µM) in the experiment on Enterobacter cloacae; 16 µg/mL (≈ 44.8 µM) in the experiment with Escherichia coli [2]; 16 µg/mL (≈ 44.8 µM) in the experiment with Escherichia coli [3]; 128 µg/mL (≈ 358 µM) with Shigella; 128 µg/mL (≈ 358 µM) in experiment [4]. Also, the MIC in the experiment with Staphylococcus aureus [5] was determined as 128 µg/mL (≈ 358 µM); in the experiment on Staphylococcus aureus [6], 128 µg/mL (≈ 358 µM); with Enterococcus faecalis it was 128 µg/mL (≈ 358 µM); in experiment [7], 128 µg/mL (≈ 358 µM); in the experiment with Klebsiella pneumoniae it was 32 µg/mL (≈ 89.5 µM); with Providencia stuartii it was 128 µg/mL (≈ 358 µM). This compound also showed an MIC against Pseudomonas aeruginosa of 128 µg/mL (≈ 358 µM).
Consider `CN1CCN(c2c(F)c(N)c3c(=O)c(C(=O)O)cn(C4CC4)c3c2F)CC1`, for which the MIC in experiment [1] was 0.05 µg/mL (≈ 0.132 µM); against Enterobacter cloacae it was 0.03 µg/mL (≈ 0.0793 µM); against Escherichia coli [11], 0.004 µg/mL (≈ 0.0106 µM); against Escherichia coli [3], 0.002 µg/mL (≈ 0.00529 µM); against Shigella it was 0.03 µg/mL (≈ 0.0793 µM); in experiment [4] it was 0.25 µg/mL (≈ 0.661 µM). In addition, the MIC against Staphylococcus aureus [5] was 0.06 µg/mL (≈ 0.159 µM); in the experiment on Staphylococcus aureus [6], 0.06 µg/mL (≈ 0.159 µM); in the experiment with Enterococcus faecalis, 0.5 µg/mL (≈ 1.32 µM); in [7], 0.12 µg/mL (≈ 0.317 µM); in the experiment on Klebsiella pneumoniae, 0.002 µg/mL (≈ 0.00529 µM); in the experiment on Providencia stuartii, 0.06 µg/mL (≈ 0.159 µM). Moreover, in the experiment with Pseudomonas aeruginosa, the MIC turned out to be 0.25 µg/mL (≈ 0.661 µM).
On to `Nc1cc2c(=O)c(C(=O)O)cn(C3CC3)c2cc1N1CCNCC1`, for which the MIC is 16 µg/mL (≈ 48.7 µM) in experiment [1]; 0.25 µg/mL (≈ 0.761 µM) against Enterobacter cloacae; 0.25 µg/mL (≈ 0.761 µM) with Escherichia coli [11]; 0.03 µg/mL (≈ 0.0914 µM) in the experiment on Escherichia coli [3]; 0.5 µg/mL (≈ 1.52 µM) with Shigella; 16 µg/mL (≈ 48.7 µM) in [4]. Besides, the MIC came out at 64 µg/mL (≈ 195 µM) with Staphylococcus aureus [5]; 64 µg/mL (≈ 195 µM) in the experiment on Staphylococcus aureus [6]; 128 µg/mL (≈ 390 µM) with Enterococcus faecalis; 16 µg/mL (≈ 48.7 µM) in experiment [7]; 0.25 µg/mL (≈ 0.761 µM) with Klebsiella pneumoniae; 32 µg/mL (≈ 97.5 µM) in the experiment with Providencia stuartii. In the experiment on Pseudomonas aeruginosa, this compound had an MIC of 2 µg/mL (≈ 6.09 µM).
With `CN1CCN(c2nc3c(cc2N)c(=O)c(C(=O)O)cn3C2CC2)CC1`, the MIC in [1] was 4 µg/mL (≈ 11.6 µM); with Enterobacter cloacae, 0.12 µg/mL (≈ 0.349 µM); against Escherichia coli [12], 0.12 µg/mL (≈ 0.349 µM); in the experiment with Escherichia coli [13], 0.03 µg/mL (≈ 0.0874 µM); in the experiment on Shigella it was 0.12 µg/mL (≈ 0.349 µM); in experiment [4] it was 4 µg/mL (≈ 11.6 µM). The MIC with Staphylococcus aureus [5] came to 4 µg/mL (≈ 11.6 µM); in the experiment on Staphylococcus aureus [6], 4 µg/mL (≈ 11.6 µM); against Enterococcus faecalis it was 32 µg/mL (≈ 93.2 µM); in experiment [7] it was 4 µg/mL (≈ 11.6 µM); against Klebsiella pneumoniae it was 0.03 µg/mL (≈ 0.0874 µM); against Providencia stuartii it was 2 µg/mL (≈ 5.82 µM). The MIC in the experiment with Pseudomonas aeruginosa was determined as 2 µg/mL (≈ 5.82 µM).
With `NCCN1CCN(c2cc3c(cc2N)c(=O)c(C(=O)O)cn3C2CC2)CC1`, the MIC in [1] is 32 µg/mL (≈ 86.2 µM); with Enterobacter cloacae, 2 µg/mL (≈ 5.38 µM); with Escherichia coli [11], 0.5 µg/mL (≈ 1.35 µM); against Escherichia coli [3], 0.5 µg/mL (≈ 1.35 µM); against Shigella, 2 µg/mL (≈ 5.38 µM); in experiment [4] it was 32 µg/mL (≈ 86.2 µM). For the same compound, the MIC was 128 µg/mL (≈ 345 µM) in the experiment with Staphylococcus aureus [5]; 128 µg/mL (≈ 345 µM) against Staphylococcus aureus [6]; 128 µg/mL (≈ 345 µM) in the experiment on Enterococcus faecalis; 64 µg/mL (≈ 172 µM) in experiment [7]; 0.5 µg/mL (≈ 1.35 µM) in the experiment with Klebsiella pneumoniae; 128 µg/mL (≈ 345 µM) in the experiment with Providencia stuartii. The compound further yielded an MIC in the experiment with Pseudomonas aeruginosa of 32 µg/mL (≈ 86.2 µM).
With `CC(C)(C)n1cc(C(=O)O)c(=O)c2cc(N)c(N3CCCC3)cc21`, the MIC in [1] was 16 µg/mL (≈ 48.6 µM); against Enterobacter cloacae, 16 µg/mL (≈ 48.6 µM); in the experiment on Escherichia coli [11], 0.12 µg/mL (≈ 0.364 µM); against Escherichia coli [3] it was 0.12 µg/mL (≈ 0.364 µM); in the experiment on Shigella, 32 µg/mL (≈ 97.1 µM); in [4], 8 µg/mL (≈ 24.3 µM). In addition, the MIC in the experiment on Staphylococcus aureus [5] was determined as 4 µg/mL (≈ 12.1 µM); with Staphylococcus aureus [6], 8 µg/mL (≈ 24.3 µM); against Enterococcus faecalis, 128 µg/mL (≈ 389 µM); in [7], 8 µg/mL (≈ 24.3 µM); in the experiment on Klebsiella pneumoniae it was 0.12 µg/mL (≈ 0.364 µM); in the experiment with Providencia stuartii, 64 µg/mL (≈ 194 µM). Further, in the experiment with Pseudomonas aeruginosa, the MIC was determined as 64 µg/mL (≈ 194 µM).
